In this assay the target is human PDE1B enzyme (Homo sapiens (Human), UniProt Q01064). The experiment in a line: IMAP TR-FRET PDE1B enzymatic assay. In kind it is biochemical. Particulars: negative log of half-maximal molar inhibitory concentration, 200 nM FAM-cAMP, values given as bins; for IC50: read-out: PDE1b (pIC50) (converted). The procedure, abridged:
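Full-length GST-tagged human PDE1B (250 pg/well) in IMAP BSA buffer with 10 U/ml calmodulin and 2.5 mM CaCl2; compound pre-incubated 5 min at room temperature, then 200 nM (final) FAM-cAMP for 30 min. IMAP binding reagent/Tb added, 1 h; TR-FRET 520/490 ratio read. IC50 from sigmoidal dose-response fit.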

For the molecule `Cc1oc2ncnc(NC3(C)CC3)c2c1C(=O)N1CCC(c2ccc(Br)cn2)C1` (stereo not shown) [Example 373, 5-[3-(5-Bromopyridin-2-yl)pyrrolidine-1-carbonyl]-6-methyl-N-(1-methylcyclopropyl)furo[2,3-d]pyrimidin-4-amine], the “PDE1b (pIC50)” value is listed as over 8.

Turning to `Cc1oc2ncnc(NC3(C)CC3)c2c1C(=O)NC(C)(C)CF` [Example 374, N-(1-Fluoro-2-methylpropan-2-yl)-6-methyl-4-[(1-methylcyclopropyl)amino]furo[2,3-d]pyrimidine-5-carboxamide], the IC50 was 10 to 100 nM.

For the molecule `Cc1oc2ncnc(NC3(C)CC3)c2c1C(=O)N1CCCC2(C1)C(=O)Nc1ccccc12` (stereo not shown) [Example 375, 1′-{6-Methyl-4-[(1-methylcyclopropyl)amino]furo[2,3-d]pyrimidine-5-carbonyl}-1,2-dihydrospiro[indole-3,3′-piperidine]-2-one], the IC50 is 100 to 1000 nM.

For `Cc1oc2ncnc(NC3(C)CC3)c2c1C(=O)N1CCCC2(C1)C(=O)N(C)c1ccccc12` (stereo not shown) [Example 376, 1-Methyl-1′-{6-methyl-4-[(1-methylcyclopropyl)amino]furo[2,3-d]pyrimidine-5-carbonyl}-1,2-dihydrospiro[indole-3,3′-piperidine]-2-one], the IC50 was 100 to 1000 nM.

Turning to `Cc1oc2ncnc(NC3(C)CC3)c2c1C(=O)N1CC(C#N)C2(C1)C(=O)Nc1ccccc12` (stereo not shown) [Example 377, 1′-{6-Methyl-4-[(1-methylcyclopropyl)amino]furo[2,3-d]pyrimidine-5-carbonyl}-2-oxo-1,2-dihydrospiro[indole-3,3′-pyrrolidine]-4′-carbonitrile], the IC50 was 10 to 100 nM.

`Cc1oc2ncnc(NC3(C)CC3)c2c1C(=O)N1CCOC2(CCc3ccccc32)C1` (stereo not shown) [Example 378, 5-({2,3-Dihydrospiro[indene-1,2′-morpholine]-4′-yl}carbonyl)-6-methyl-N-(1-methylcyclopropyl)furo[2,3-d]pyrimidin-4-amine]: the IC50 was 100 to 1000 nM.

Regarding `Cc1oc2ncnc(NC3(C)CC3)c2c1C(=O)N1CCCC2(C1)OCc1ccccc12` (stereo not shown) [Example 379, 6-Methyl-N-(1-methylcyclopropyl)-5-({3H-spiro[2-benzofuran-1,3′-piperidine]-1′-yl}carbonyl)furo[2,3-d]pyrimidin-4-amine], the IC50 is 100 to 1000 nM.

Consider `Cc1oc2ncnc(NC3(C)CC3)c2c1C(=O)N1CCC2(C1)OCc1ccccc12` (stereo not shown) [Example 380, 6-Methyl-N-(1-methylcyclopropyl)-5-(f{3H-spiro[2-benzofuran-1,3′-pyrrolidine]-1′-yl}carbonyl)furo[2,3-d]pyrimidin-4-amine], for which the IC50 was 10 to 100 nM.

On to `Cc1oc2ncnc(NC3(C)CC3)c2c1C(=O)N1CCN(c2cncnc2)CC1` [Example 381, 6-Methyl-N-(1-methylcyclopropyl)-5-[4-(pyrimidin-5-yl)piperazine-1-carbonyl]furo[2,3-d]pyrimidin-4-amine], for which the IC50 is 10 to 100 nM.

As to `Cc1oc2ncnc(NC3(C)CC3)c2c1C(=O)N1CCC(c2ccc(C(N)=O)cc2)CC1` [Example 382, 4-(1-{6-Methyl-4-[(1-methylcyclopropyl)amino]furo[2,3-d]pyrimidine-5-carbonyl}piperidin-4-yl)benzamide], the “PDE1b (pIC50)” value is recorded as over 8.

`Cc1ccc(C2CCN(C(=O)c3c(C)oc4ncnc(NC5(C)CC5)c34)CC2)cn1` [Example 383, 6-Methyl-N-(1-methylcyclopropyl)-5-[4-(6-methylpyridin-3-yl)piperidine-1-carbonyl]furo[2,3-d]pyrimidin-4-amine]: the IC50 was 10 to 100 nM.

With `Cc1ccc(C2CCN(C(=O)c3c(C)oc4ncnc(NC5(C)CC5)c34)CC2)cc1` [Example 384, 6-Methyl-N-(1-methylcyclopropyl)-5-[4-(4-methylphenyl)piperidine-1-carbonyl]furo[2,3-d]pyrimidin-4-amine], the “PDE1b (pIC50)” value was over 8.

Take `Cc1oc2ncnc(NC3(C)CC3)c2c1C(=O)N1CCC(c2ccc(C#N)cc2)CC1` [Example 385, 4-(1-{6-Methyl-4-[(1-methylcyclopropyl)amino]furo[2,3-d]pyrimidine-5-carbonyl}piperidin-4-yl)benzonitrile]: the “PDE1b (pIC50)” value is recorded as over 8.

Consider `Cc1oc2ncnc(NC3(C)CC3)c2c1C(=O)N1CCC2(CC1)OC(=O)Nc1ccc(F)cc12` [Example 386, 6-Fluoro-1′-{6-methyl-4-[(1-methylcyclopropyl)amino]furo[2,3-d]pyrimidine-5-carbonyl}-1,2-dihydrospiro[3,1-benzoxazine-4,4′-piperidine]-2-one], for which the IC50 is 10 to 100 nM.

Regarding `Cc1oc2ncnc(NC3(C)CC3)c2c1C(=O)N1CCC2(C=Cc3ccccc32)CC1` [Example 387, 6-Methyl-N-(1-methylcyclopropyl)-5-({spiro[indene-1,4′-piperidine]-1′-yl}carbonyl)furo[2,3-d]pyrimidin-4-amine], the “PDE1b (pIC50)” value was over 8.

As to `Cc1oc2ncnc(NC3(C)CC3)c2c1C(=O)N1CCC2(CC1)SCc1ccccc12` [Example 388, 6-Methyl-N-(1-methylcyclopropyl)-5-(f{3H-spiro[2-benzothiophene-1,4′-piperidine]-1′-yl}carbonyl)furo[2,3-d]pyrimidin-4-amine], the “PDE1b (pIC50)” value is listed as over 8.

Turning to `Cc1oc2ncnc(NC3(C)CC3)c2c1C(=O)N1CCC(c2cccc(F)c2)C1` (stereo not shown) [Example 389, 5-[3-(3-Fluorophenyl)pyrrolidine-1-carbonyl]-6-methyl-N-(1-methylcyclopropyl)furo[2,3-d]pyrimidin-4-amine], the “PDE1b (pIC50)” value was over 8.

`Cc1ccnc(C2CCN(C(=O)c3c(C)oc4ncnc(NC5(C)CC5)c34)CC2)n1` [Example 390, 6-Methyl-N-(1-methylcyclopropyl)-5-[4-(4-methylpyrimidin-2-yl)piperidine-1-carbonyl]furo[2,3-d]pyrimidin-4-amine]: the “PDE1b (pIC50)” value is recorded as over 8.

With `Cc1cnc(C2CCN(C(=O)c3c(C)oc4ncnc(NC5(C)CC5)c34)CC2)nc1C` [Example 391, 5-[4-(4,5-Dimethylpyrimidin-2-yl)piperidine-1-carbonyl]-6-methyl-N-(1-methylcyclopropyl)furo[2,3-d]pyrimidin-4-amine], the IC50 was 10 to 100 nM.

On to `Cc1oc2ncnc(NC3(C)CC3)c2c1C(=O)N1CCC2(C1)C(=O)Nc1ccccc12` (stereo not shown) [Example 392, 1′-{6-Methyl-4-[(1-methylcyclopropyl)amino]furo[2,3-d]pyrimidine-5-carbonyl}-1,2-dihydrospiro[indole-3,3′-pyrrolidine]-2-one], for which the IC50 was 10 to 100 nM.

Turning to `Cc1cnc(C2CCN(C(=O)c3c(C)oc4ncnc(NC5(C)CC5)c34)CC2)cn1` [Example 393, 6-Methyl-N-(1-methylcyclopropyl)-5-[4-(5-methylpyrazin-2-yl)piperidine-1-carbonyl]furo[2,3-d]pyrimidin-4-amine], the IC50 was 10 to 100 nM.

As to `COc1ncc(C2CCN(C(=O)c3c(C)oc4ncnc(NC5(C)CC5)c34)CC2)cn1` [Example 394, 5-[4-(2-Methoxypyrimidin-5-yl)piperidine-1-carbonyl]-6-methyl-N-(1-methylcyclopropyl)furo[2,3-d]pyrimidin-4-amine], the IC50 is 10 to 100 nM.

Consider `Cc1cccc(C2CCN(C(=O)c3c(C)oc4ncnc(NC5(C)CC5)c34)C2)c1` (stereo not shown) [Example 395, 6-Methyl-N-(1-methylcyclopropyl)-5-[3-(3-methylphenyl)pyrrolidine-1-carbonyl]furo[2,3-d]pyrimidin-4-amine], for which the “PDE1b (pIC50)” value is over 8.

Regarding `Cc1oc2ncnc(NC3(C)CC3)c2c1C(=O)N1CCC(c2cccc(C(F)(F)F)c2)C1` (stereo not shown) [Example 396, 6-Methyl-N-(1-methylcyclopropyl)-5-{3-[3-(trifluoromethyl)phenyl]pyrrolidine-1-carbonyl}furo[2,3-d]pyrimidin-4-amine], the “PDE1b (pIC50)” value was over 8.

For `Cc1cc(C)cc(C2CCN(C(=O)c3c(C)oc4ncnc(NC5(C)CC5)c34)C2)c1` (stereo not shown) [Example 397, 5-[3-(3,5-Dimethylphenyl)pyrrolidine-1-carbonyl]-6-methyl-N-(1-methylcyclopropyl)furo[2,3-d]pyrimidin-4-amine], the “PDE1b (pIC50)” value is reported as over 8.

For the molecule `Cc1oc2ncnc(NC3(C)CC3)c2c1C(=O)N1CCC(Oc2cccc(F)c2)C1` (stereo not shown) [Example 398, 5-[3-(3-Fluorophenoxy)pyrrolidine-1-carbonyl]-6-methyl-N-(1-methylcyclopropyl)furo[2,3-d]pyrimidin-4-amine], the “PDE1b (pIC50)” value is over 8.

Turning to `Cc1oc2ncnc(NC3(C)CC3)c2c1C(=O)N1CCC(Oc2ccc(F)cc2)C1` (stereo not shown) [Example 399, 5-[3-(4-Fluorophenoxy)pyrrolidine-1-carbonyl]-6-methyl-N-(1-methylcyclopropyl)furo[2,3-d]pyrimidin-4-amine], the IC50 is 10 to 100 nM.

For the molecule `Cc1oc2ncnc(NC3(C)CC3)c2c1C(=O)NC(C)C1CC1` (stereo not shown) [Example 400, N-(1-Cyclopropylethyl)-6-methyl-4-[(1-methylcyclopropyl)amino]furo[2,3-d]pyrimidine-5-carboxamide], the IC50 is 10 to 100 nM.

For the molecule `CCC(NC(=O)c1c(C)oc2ncnc(NC3(C)CC3)c12)C1CC1` (stereo not shown) [Example 401, N-(1-Cyclopropylpropyl)-6-methyl-4-[(1-methylcyclopropyl)amino]furo[2,3-d]pyrimidine-5-carboxamide], the IC50 was 10 to 100 nM.

In the case of `Cc1oc2ncnc(NC3(C)CC3)c2c1C(=O)NC(C)C1(C)CC1` (stereo not shown) [Example 402, 6-Methyl-4-[(1-methylcyclopropyl)amino]-N-[1-(1-methylcyclopropyl)ethyl]furo[2,3-d]pyrimidine-5-carboxamide], the IC50 is 10 to 100 nM.

Consider `Cc1oc2ncnc(NC3(C)CC3)c2c1C(=O)N1CC2CC(C1)c1ccccc12` [Example 403, 5-{10-Azatricyclo[6.3.1.0^2,7]dodeca-2,4,6-triene-10-carbonyl}-6-methyl-N-(1-methylcyclopropyl)furo[2,3-d]pyrimidin-4-amine], for which the IC50 was 100 to 1000 nM.

(Values after patent US20250145633A1, “SUBSTITUTED FURANOPYRIMIDINE COMPOUNDS AS PDE1 INHIBITORS” (Dart NeuroScience, LLC, priority 2017, published 2025).)
